Test results taken from the NIST ThermoML archive (doi:10.1007/s10765-010-0725-9).
Where “and” joins values, the source holds several entries; their conditions need not be identical. Equal entries are not always repeated. Numbers after ± are expanded uncertainties.

Legend:
[1] = wn = mass fraction of the nth substance listed; details: Pendant drop shape
[2] = Pendant drop shape

Structure (SMILES) | surface tension liquid-gas ([1]; 303.15 K, w1 = 0.1) | surface tension liquid-gas ([1]; 303.15 K, w1 = 0.14) | surface tension liquid-gas ([1]; 303.15 K, w1 = 0.18) | surface tension liquid-gas ([1]; 313.15 K, w1 = 0.1) | surface tension liquid-gas ([1]; 313.15 K, w1 = 0.14) | surface tension liquid-gas ([1]; 313.15 K, w1 = 0.18) | surface tension liquid-gas ([1]; 323.15 K, w1 = 0.1) | surface tension liquid-gas ([1]; 323.15 K, w1 = 0.14) | surface tension liquid-gas ([1]; 323.15 K, w1 = 0.18) | surface tension liquid-gas ([1]; 333.15 K, w1 = 0.1) | surface tension liquid-gas ([1]; 333.15 K, w1 = 0.14) | surface tension liquid-gas ([1]; 333.15 K, w1 = 0.18) | surface tension liquid-gas ([1]; 303.15 K, w1 = 0.04) | surface tension liquid-gas ([1]; 313.15 K, w1 = 0.04) | surface tension liquid-gas ([1]; 323.15 K, w1 = 0.04) | surface tension liquid-gas ([1]; 333.15 K, w1 = 0.04) | also measured
[Cl-].[K+] [potassium chloride] + O | 71.58 ± 1 mN/m | 72.12 ± 1.1 mN/m | 76.78 ± 1.1 mN/m | 69.86 ± 1 mN/m | 70.64 ± 1 mN/m | 75.23 ± 1.1 mN/m | 67.57 ± 0.98 mN/m | 69.15 ± 1 mN/m | 74.65 ± 1.1 mN/m | 66.39 ± 0.96 mN/m | 66.16 ± 0.96 mN/m | 71.44 ± 1 mN/m | – | – | – | – | –
O [water] | – | – | – | – | – | – | – | – | – | – | – | – | – | – | – | – | surface tension liquid-gas ([2]; 303.15 K): 71.54 ± 0.82 mN/m and 72.12 ± 0.82 mN/m and 71.58 ± 0.82 mN/m; surface tension liquid-gas ([2]; 313.15 K): 70.64 ± 0.81 mN/m and 68.96 ± 0.79 mN/m and 69.86 ± 0.8 mN/m; surface tension liquid-gas ([2]; 323.15 K): 69.15 ± 0.79 mN/m and 67.83 ± 0.78 mN/m and 67.57 ± 0.78 mN/m; surface tension liquid-gas ([2]; 333.15 K): 66.16 ± 0.76 mN/m and 66.39 ± 0.76 mN/m; surface tension liquid-gas ([2]; 343.15 K): 65.39 ± 0.75 mN/m and 65.8 ± 0.8 mN/m and 64.73 ± 0.75 mN/m
O=S(=O)([O-])[O-].[Na+].[Na+] [sodium sulfate] + O | 73.56 ± 0.83 mN/m | 74.02 ± 0.83 mN/m | 76.28 ± 0.86 mN/m | 71.88 ± 0.81 mN/m | 72.82 ± 0.82 mN/m | 74.97 ± 0.84 mN/m | 70.5 ± 0.79 mN/m | 71.65 ± 0.81 mN/m | 73.22 ± 0.83 mN/m | 69.11 ± 0.78 mN/m | 69.93 ± 0.79 mN/m | 71.4 ± 0.81 mN/m | 71.53 ± 0.8 mN/m | 70.7 ± 0.8 mN/m | 68.8 ± 0.78 mN/m | 67.27 ± 0.76 mN/m | –
[Ca+2].[Cl-].[Cl-] [calcium chloride] + O | 74.59 ± 0.93 mN/m | 76.08 ± 0.94 mN/m | 77.53 ± 0.96 mN/m | 72.56 ± 0.9 mN/m | 73.65 ± 0.92 mN/m | 74.89 ± 0.93 mN/m | 70.38 ± 0.88 mN/m | 71.52 ± 0.89 mN/m | 73.25 ± 0.91 mN/m | 68.56 ± 0.85 mN/m | 70.63 ± 0.88 mN/m | 71.87 ± 0.9 mN/m | 72.74 ± 0.9 mN/m | 70.84 ± 0.88 mN/m | 69.62 ± 0.87 mN/m | 67.62 ± 0.84 mN/m | –
[Cl-].[Na+] [sodium chloride] + O | 73.42 ± 1.3 mN/m | 76.09 ± 1.3 mN/m | 77.04 ± 1.3 mN/m | 71.81 ± 1.2 mN/m | 74.6 ± 1.3 mN/m | 74.73 ± 1.3 mN/m | 70.97 ± 1.2 mN/m | 72.47 ± 1.3 mN/m | 73.38 ± 1.3 mN/m | 69.74 ± 1.2 mN/m | 71.83 ± 1.2 mN/m | 71.44 ± 1.2 mN/m | 71.44 ± 1.2 mN/m | 70.66 ± 1.2 mN/m | 68.25 ± 1.2 mN/m | 67.31 ± 1.2 mN/m | –
